Data as given in ChEMBL document CHEMBL1201862, “PubChem BioAssay data set” (2004).
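In this assay, cells in 96-well plates receive the compound at five concentrations for 48 hours. Endpoints are linearly interpolated between the surrounding concentrations. Here, GI50 denotes the concentration required for 50% inhibition of growth.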 Activity calls are given as the source filed them. Rule as the data show it: active = GI50 up to about 1.1 µM and inactive = higher.

Tests used:
Experiment in all cases: DTP human tumour cell line panel, 48 h
786-0 = system: 786-0
EKVX = system: EKVX
HCC 2998 = system: HCC 2998
HCT-116 = system: HCT-116
HL-60 = system: HL-60
HT-29 = system: HT-29
K562 = system: K562
LOX IMVI = system: LOX IMVI
Malme-3M = system: Malme-3M
NCI-H522 = system: NCI-H522
OVCAR-3 = system: OVCAR-3
OVCAR-5 = system: OVCAR-5
SF-268 = system: SF-268
SK-MEL-2 = system: SK-MEL-2
SK-OV-3 = system: SK-OV-3
SNB-19 = system: SNB-19
SR = system: SR
SW-620 = system: SW-620
UACC-257 = system: UACC-257
UACC-62 = system: UACC-62

| SMILES | GI50 (786-0) | GI50 (EKVX) | GI50 (HCC 2998) | GI50 (HCT-116) | GI50 (HL-60) | GI50 (HT-29) | GI50 (K562) | GI50 (LOX IMVI) | GI50 (Malme-3M) | GI50 (NCI-H522) | GI50 (OVCAR-3) | GI50 (OVCAR-5) | GI50 (SF-268) | GI50 (SK-MEL-2) | GI50 (SK-OV-3) | GI50 (SNB-19) | GI50 (SR) | GI50 (SW-620) | GI50 (UACC-257) | GI50 (UACC-62) |
| --- | --- | --- | --- | --- | --- | --- | --- | --- | --- | --- | --- | --- | --- | --- | --- | --- | --- | --- | --- | --- |
| CC(C)/C(Cl)=N\OC(=O)Nc1cccc(Cl)c1 | 15.7 µM (inactive) | 16.3 µM (inactive) | 17 µM (inactive) | 18.1 µM (inactive) | 1.71 µM (inactive) | 15 µM (inactive) | 2.07 µM (inactive) | 3.72 µM (inactive) | 11.6 µM (inactive) | 1.66 µM (inactive) | 3.28 µM (inactive) | 13.5 µM (inactive) | 18.5 µM (inactive) | 15.5 µM (inactive) | > 43.9 µM (inactive) | > 100 µM (inactive) | 2.49 µM (inactive) | 2.97 µM (inactive) | 13.6 µM (inactive) | 20.2 µM (inactive) |
| O=C(CCC(=O)Nc1cccc(Cl)c1)CC(=O)c1ccc(F)cc1 | > 100 µM (inactive) |  | > 100 µM (inactive) | > 100 µM (inactive) | > 100 µM (inactive) | > 100 µM (inactive) | > 100 µM (inactive) | > 100 µM (inactive) | > 100 µM (inactive) | > 100 µM (inactive) | > 100 µM (inactive) | > 100 µM (inactive) | > 100 µM (inactive) | > 100 µM (inactive) | > 100 µM (inactive) | > 100 µM (inactive) | > 100 µM (inactive) | > 100 µM (inactive) | > 100 µM (inactive) | > 100 µM (inactive) |
| O=C(O)c1ccc(Nc2nc3nn(Cc4ccccc4)cc3c(=O)s2)cc1 | > 100 µM (inactive) | > 100 µM (inactive) | > 100 µM (inactive) | > 100 µM (inactive) | > 100 µM (inactive) |  | > 100 µM (inactive) | > 100 µM (inactive) | > 100 µM (inactive) | > 100 µM (inactive) | > 100 µM (inactive) | > 100 µM (inactive) | > 100 µM (inactive) | > 100 µM (inactive) | > 100 µM (inactive) | > 100 µM (inactive) | > 100 µM (inactive) | > 100 µM (inactive) | > 100 µM (inactive) |  |
| CC[P+](C)(Cc1ccccc1)c1ccccc1 (stereo unspecified) | > 100 µM (inactive) | > 100 µM (inactive) | > 100 µM (inactive) | > 100 µM (inactive) | 90.8 µM (inactive) | > 100 µM (inactive) | > 100 µM (inactive) | > 100 µM (inactive) | 91.8 µM (inactive) | 44.2 µM (inactive) | 58.5 µM (inactive) | > 100 µM (inactive) |  | > 100 µM (inactive) | > 100 µM (inactive) | > 100 µM (inactive) | > 100 µM (inactive) | > 100 µM (inactive) | > 100 µM (inactive) | > 100 µM (inactive) |
| CCOC(=O)c1cc2c3ccn(Cc4ccccc4)c3c3c(C)noc3c2[nH]1 | > 100 µM (inactive) | > 100 µM (inactive) | > 100 µM (inactive) | > 100 µM (inactive) | > 100 µM (inactive) |  | > 100 µM (inactive) | > 100 µM (inactive) | > 100 µM (inactive) | > 100 µM (inactive) | > 100 µM (inactive) | > 100 µM (inactive) | > 100 µM (inactive) | > 100 µM (inactive) |  | > 100 µM (inactive) | > 100 µM (inactive) | > 100 µM (inactive) | > 100 µM (inactive) | > 100 µM (inactive) |
| COc1cccc2c1-c1c(OC)cccc1SS2 | 18.2 µM (inactive) | 13.1 µM (inactive) | 20.9 µM (inactive) | 18.2 µM (inactive) | 1.01 µM (active) | 17.3 µM (inactive) | 27.5 µM (inactive) | 10.7 µM (inactive) | 18.1 µM (inactive) | 19.7 µM (inactive) | 16.3 µM (inactive) | 17.8 µM (inactive) | 22.6 µM (inactive) | 17.5 µM (inactive) |  | 24.8 µM (inactive) | 16.9 µM (inactive) | 20.4 µM (inactive) | 11.6 µM (inactive) | 20.1 µM (inactive) |
| CCCCOC(=O)/C(CC(=O)C=C(C)C)=N\NS(=O)(=O)c1ccc(C)cc1 | > 100 µM (inactive) | > 100 µM (inactive) | > 100 µM (inactive) | > 100 µM (inactive) | > 100 µM (inactive) | > 100 µM (inactive) | > 100 µM (inactive) | 71.3 µM (inactive) | > 100 µM (inactive) | 41.8 µM (inactive) | > 100 µM (inactive) | > 100 µM (inactive) | > 100 µM (inactive) | > 100 µM (inactive) | > 100 µM (inactive) | > 100 µM (inactive) | 27.7 µM (inactive) |  | > 100 µM (inactive) | > 100 µM (inactive) |
| Oc1nnc2c(-c3ccccc3)n[nH]c2n1 | 15.5 µM (inactive) | 16.4 µM (inactive) | > 100 µM (inactive) | > 100 µM (inactive) | > 100 µM (inactive) | > 100 µM (inactive) | > 100 µM (inactive) | > 100 µM (inactive) |  | > 100 µM (inactive) | > 100 µM (inactive) | > 100 µM (inactive) | > 100 µM (inactive) | > 100 µM (inactive) |  | > 100 µM (inactive) | > 100 µM (inactive) | > 100 µM (inactive) | > 100 µM (inactive) | > 100 µM (inactive) |
| Cc1c(C(=O)/C=C/c2ccc3c(c2)OCO3)[n+]([O-])c2ccccc2[n+]1[O-] | 42.1 µM (inactive) | 24.7 µM (inactive) | 23.1 µM (inactive) | 29.4 µM (inactive) | 30.8 µM (inactive) | 26.4 µM (inactive) | 33 µM (inactive) | 26.1 µM (inactive) | 89.5 µM (inactive) | 15.3 µM (inactive) | 24.2 µM (inactive) | 27.8 µM (inactive) | 52.6 µM (inactive) |  | 21.3 µM (inactive) | 56 µM (inactive) | 30.3 µM (inactive) | 37.2 µM (inactive) | 31 µM (inactive) | 27.2 µM (inactive) |
| O=CNCCCN1CCN(CCCNC=O)CC1 | > 100 µM (inactive) | > 100 µM (inactive) | > 100 µM (inactive) | > 100 µM (inactive) | > 100 µM (inactive) | > 100 µM (inactive) | > 100 µM (inactive) | > 100 µM (inactive) |  | 1.6 µM (inactive) | > 100 µM (inactive) | > 100 µM (inactive) | 4.88 µM (inactive) | > 100 µM (inactive) | > 100 µM (inactive) | > 100 µM (inactive) | > 100 µM (inactive) | > 100 µM (inactive) | > 100 µM (inactive) | > 100 µM (inactive) |
| CSc1nc2c(c(=O)[nH]1)N=C(c1ccccc1)CC(c1ccccc1)N2 (stereo unspecified) | 38.5 µM (inactive) | 32.1 µM (inactive) | 29.3 µM (inactive) | 29.6 µM (inactive) | 22.9 µM (inactive) | 30.4 µM (inactive) | 23.4 µM (inactive) | 24.8 µM (inactive) | 23.4 µM (inactive) | 19.2 µM (inactive) | 39 µM (inactive) | 31.3 µM (inactive) |  | 27.8 µM (inactive) | 33.6 µM (inactive) | 39.1 µM (inactive) | 21.1 µM (inactive) | 50.8 µM (inactive) | 56.5 µM (inactive) | 23.6 µM (inactive) |
| NCCN1CCCCCc2ccccc21 | > 10 µM (inactive) | > 10 µM (inactive) | > 10 µM (inactive) | > 10 µM (inactive) | > 10 µM (inactive) | > 10 µM (inactive) | > 10 µM (inactive) | > 10 µM (inactive) | > 10 µM (inactive) | > 10 µM (inactive) | > 10 µM (inactive) |  | > 10 µM (inactive) | > 10 µM (inactive) | > 10 µM (inactive) | > 10 µM (inactive) | > 10 µM (inactive) | > 10 µM (inactive) | > 10 µM (inactive) | > 10 µM (inactive) |
| COc1ccc(/C=N/N=C(\N)NO)c(OC)c1OC | 18.5 µM (inactive) | 16.6 µM (inactive) | 17.2 µM (inactive) | 20.1 µM (inactive) | 23.1 µM (inactive) | 20.8 µM (inactive) | 23.2 µM (inactive) | 23.4 µM (inactive) | 26.5 µM (inactive) | 36.6 µM (inactive) | 16.4 µM (inactive) | 23.4 µM (inactive) | 24.7 µM (inactive) | 25.6 µM (inactive) | 51.4 µM (inactive) | > 100 µM (inactive) | 25 µM (inactive) | 46.2 µM (inactive) |  | 20.6 µM (inactive) |
| C=CCOc1ccc(C(=N/NC(=O)c2ccccc2)/N=N/c2ccc(C)cc2)cc1OC | 33.9 µM (inactive) | 30.9 µM (inactive) | 18.7 µM (inactive) | 19 µM (inactive) | 4.83 µM (inactive) | 20.3 µM (inactive) |  | 14.7 µM (inactive) | 21.1 µM (inactive) | 16.4 µM (inactive) | 25.9 µM (inactive) | 42.6 µM (inactive) | 52.7 µM (inactive) | 23.2 µM (inactive) |  | 50 µM (inactive) | 6.17 µM (inactive) | 31.4 µM (inactive) | 19.6 µM (inactive) | 14.3 µM (inactive) |
| CC(C)C1=CCC2C(=C1)CCC1C(C)(C(=O)O)CCCC21C (stereo unspecified) | > 100 µM (inactive) | > 100 µM (inactive) | > 100 µM (inactive) | > 100 µM (inactive) | 14.2 µM (inactive) | 78.5 µM (inactive) |  | > 100 µM (inactive) | > 100 µM (inactive) | > 100 µM (inactive) | > 100 µM (inactive) | > 100 µM (inactive) | > 100 µM (inactive) | > 100 µM (inactive) | > 100 µM (inactive) |  | > 100 µM (inactive) | > 100 µM (inactive) | > 100 µM (inactive) | > 100 µM (inactive) |
